Source: patent US11918352B2, “Non-invasive determination of a physiological state of interest in a subject” (ISBRG CORP., priority 2018, dated 2024)

Tests used:
[1] = Analyte composition of a subject after consumption (Table 2, simplified illustrative data set); format: in vivo, human; conditions: for Analyte level, intoxicated state: 1 hr after consumption, THC induced intoxicated state; for Analyte level, post-intoxicated state: 36 hr after consumption
Description: For example, which is not to be considered limiting, in a THC induced intoxicated state, a subject may comprise the analyte composition presented in Table 1. It is to be understood that this table presents a simplified data set to exemplify the method described herein. Other analytes, which may include known analytes or ghost analytes, are indicated as analytes A, B . . . C; A′, B′, . . . C′; A″, B″ . . . C″. These other analytes may increase or decrease in response to, or that are correlated with, the physiological condition and they may be included in this analysis.
In this example, the result may be considered positive for a THC-induced intoxicated state if the Index is greater than a preset value which is determined based on an analysis of the analytes determined in subjects who were exposed to a control treatment, or a range of THC under controlled conditions, for example an Index value of (2+A)/(C+ . . . +C) may be an indication of a positive result for the state of THC-induced intoxication.

[2] = cited from earlier work

Row | Compound | Analyte level, intoxicated state [1] | Analyte level, post-intoxicated state [1] | Residual THC in serum ([2]; chronic users of marijuana, detected for 24 to 48 hours or longer, serum) | Residual THC in whole blood ([2]; chronic users of marijuana, detected for 24 to 48 hours or longer, whole blood) | Time of THC peak ([2]; smoked marijuana, after inhaling) | THC level remaining ([2]; smoked marijuana, for 8 hours or more)
1 | CCCCCc1cc(O)c2c(c1)OC(C)(C)[C@@H]1CCC(C(=O)O)=C[C@@H]21 [THC-COOH, 11-nor-9-carboxy-THC] | 5 ng/mL | 11 ng/mL | – | – | – | –
2 | CCCCCc1cc(O)c2c(c1)OC(C)(C)C1CCC(CO)=CC21 (stereo not shown) [11-OH-THC, 11-hydroxy THC] | 5 ng/mL | 2 ng/mL | – | – | – | –
3 | CCCCCc1cc(O)c2c(c1)OC(C)(C)[C@@H]1CCC(C)=C[C@@H]21 [THC, delta-9-tetrahydrocannabinol] | 78 ng/mL | 8 ng/mL | 1.0 to 6.4 ng/mL | 0.5 to 3.2 ng/mL | first few minutes | 1 to 2 ng/mL
